Assays:
[1] = test system: mouse p21 mRNA; test: In vitro cleavage of mouse p21 mRNA; type: biochemical; conditions: in vitro cleavage of mouse p21 mRNA (SEQ ID NO: 3)
[2] = test system: Bleomycin-induced pulmonary fibrosis model mice; test: Bleomycin-induced idiopathic pulmonary fibrosis (IPF) mouse model; type: in vivo
Experimental: Total RNA from lung samples (post-caval lobe) was extracted using RNAiso (Takara Bio. Japan) according to manufacturer protocol. Reverse transcription was performed using MMLV-RT (Invitrogen). Real-time PCR was performed using TB Green™ Premix Ex Taq™ II (Takara Bio). To calculate the relative mRNA expression level, the expression of each gene (Collagen Type 1) were be normalized to that of reference gene 36B4 (gene symbol: Rplp0).
C57/B6 mice were induced to develop pulmonary fibrosis by a single intra-tracheal administration of Bleomycin hydrochloride (Nippon Kayaku. Japan) in saline at a dose of 3.0 mg/kg, in a volume of 50 μL per animal using Microsprayer® (Penn-Century. USA). Mice that served as the Sham control group were intratracheally administered with saline, instead of the Bleomycin. Mice were initially randomized based on body weight before Bleomycin instillation. At second randomization, Bleomycin-induced pulmonary fibrosis model mice were divided based on the body weight changes on the day before the start of treatment at Day 7. DNAzyme treatment was performed intranasally with 200 μg of DNAzyme resuspended in 50 μL PBS per treatment. PBS intra-nasal treatment served as control. Mice were treated daily following Bleomycin instillation with either DNAzyme or control from day 1 to 20 (prophylactic regimen) or from day 7 to 20 (therapeutic regimen). Body weight, viability, clinical signs and behavior were monitored daily. Mice were sacrificed three weeks following Bleomycin instillation.
Right lung tissues prefixed in 10% neutral buffered formalin were embedded in paraffin and sectioned at 4 μm.
For immunohistochemistry (IHC) staining, sections were subjected to heat induced epitope retrieval (HIER) Following HIER, the sections were incubated rabbit monoclonal anti-p21 antibody [EPR18021] (Abcam) 1:2000 or rabbit monoclonal anti-α-SMA antibody [EPR5368] (Abcam) 1:2000. Section bound primary antibody was detected employing horseradish peroxidase labeled anti-rabbit IgG polymeric reagent.
For Masson's Trichrome staining, the sections were deparaffinized and rehydrated, followed by re-fixation with Bouin's solution for 15 minutes. The sections were stained in Weigert's iron Hematoxylin working solution (Sigma-Aldrich), Biebrich scarlet-Acid fuchsin solution (Sigma-Aldrich), Phosphotungstic/phosphomolybdic Acid solution, Aniline blue solution and 1% Acetic Acid solution (Sigma-Aldrich). For quantitative analysis of lung fibrosis area, bright field images of Masson's Trichrome-stained sections were randomly captured using a digital camera (DFC295; Leica, Germany) at 100-fold magnification, and the subpleural regions in 20 fields/mouse were evaluated according to the criteria for grading lung fibrosis [Ashcroft. T. et al., Simple method of estimating severity of pulmonary fibrosis on a numerical scale. J Clin. Pathol. (1988) 41: 467-470]. All sections were blindly analyzed by an experimenter.
Digital images were analyzed by a custom MATLAB algorithm, using Image Processing Toolbox. First, a binary image was calculated, in order to distinguish background pixels from the lobe pixels. Next, a morphological close operation on the image was preformed, fill of the holes, and extraction of the largest connected component, in order to detect all lobe area, including alveoli. The density of the lobe was defined by the ratio between the stained pixels to the total pixels in the lobe area. For Masson's Trichrome staining, blue pixels were detected and separated from purple staining by specifying RGB (red, green, and blue) constraints. The Collagen percentage in each image was defined by the ratio between the blue pixels to the total pixels in the lobe area.
For p21 staining, an image segmentation algorithm was performed to identify all nuclei in image. Next, cells positive to p21 were detected by RGB and size constraints. […]

[3] = test system: human p21 mRNA; test: In vitro cleavage assay of human p21 mRNA; type: biochemical; conditions: in vitro cleavage of p21 mRNA (SEQ ID NO: 1); RNA substrate 500 nM, 37° C. 60 min, agarose gel
Text: Total RNA was isolates from senescent IMR-90 cells using Nucleospin® RNA kit (Macherey-Nagel™). cDNA was synthesized with gene-specific reverse primers using M-MLV Reverse Transcriptase (Promega), according to the manufacturer's protocol. To generate template for in vitro transcription (IVT) reaction, the cDNA was PCR amplified using KAPA Taq EXtra HotStart® ReadyMix™ PCR Kit (R&D). PCR product was run on 1.5% agarose TAE gel, the correct band size was cut and DNA was cleaned using Wizard® SV Gel and PCR Clean-Up System kit (Promega). IVT was performed using HiScribe™ T7 High Yield RNA Synthesis Kit (NEB). Samples were then treated with DNase I (New England Biolabs) and incubated for 15 minutes at 37° C. IVT product was run on 1.5% agarose TBE gel, the correct band size was cut and RNA was cleaned using QIAquick® Gel Extraction Kit (Qiagen). See primer sequences in Table 1, below.
RNA substrate was diluted with Molecular Biology Grade Water (Biological Industries) and used in in vitro cleavage assay. A 20 μl reaction system comprising RNA substrate (final concentration 500 nM), 2 μl 10× reaction buffer (50 mM Tris-HCl pH 7.4, 100 mM NaCl, 10 mM MgCl2) and 1 μl DNAzyme (10 μM) (as depicted in Table 2, below) was mixed. Reactions were incubated at 37° C. for 60 min. 2×RNA L.D. (Thermo Fisher) was added to each sample. Samples were heated at 70° C. for 30 sec, centrifuged and loaded onto 1.5% agarose TBE gels. Quantification was performed using Image Lab software (Bio Rad).

[4] = test system: senescent human IMR-90 fibroblast cells; type: cell-based; conditions: increasing concentrations (FIGS. 6A-C, 12A-C)
Outline: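 Senescence was induced by etoposide at […] for 48 h, with the phenotype present 7 days later, or by H-RasG12 or long-term passaging. Cells grown at 5% oxygen were transfected with DNAzymes by Lipofectamine 2000, and survival was scored 3-6 days later by PrestoBlue relative to Lipofectamine-only control.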

[5] = test system: senescent lung fibroblasts (WI-38); test: Viability assay on WI-38 cells; type: cell-based, human; conditions: FIG. 6D
Experimental: (§1) Human IMR-90, BJ, WI-38 fibroblasts and REC epithelial cells were obtained from ATCC and grown at 5% oxygen. IMR-90 and REC cells were maintained in DMEM medium comprising 100 units per ml of penicillin, […] of streptomycin and 10% fetal bovine serum. BJ and WI-38 cells were maintained in EMEM medium comprising 100 units per ml of penicillin, […] of streptomycin, 10% fetal bovine serum, 1% Pyruvate, 1% L-Glutamine, mLFs were isolated according to standard procedures [Seluanov, A., et al. J Vis Exp (2010) (44):2033] and grown at 5% oxygen. Cells were maintained in EMEM medium comprising 100 units per ml of penicillin, […] of streptomycin and 15% fetal bovine serum.
(§2) DNA damage induced senescence (DIS) was induced by etoposide treatment (E1383, Sigma) at a concentration of […] for IMR-90, BJ, and WI-38, 16 μM for mLF and 12.5 μM for REC for a duration of 48 hours. Cells acquired the senescence phenotype 7 days post treatment (determined by SA-beta-gal staining).
(§3) Primary target cells (IMR-90, BJ, […]) were plated in 24-well plates at 100,000 cells per well. Cells were transfected with different concentrations of DNAzymes (as depicted in Table 2, below) using Lipofectamine™ 2000 (Invitrogen) according to manufacturer instructions. […]

[6] = test system: senescent epithelial kidney cells (REC); test: Viability assay on REC cells; type: cell-based, human; conditions: FIG. 6D
Experimental: as §1, §2, §3

Substance	Validated cleavage [1]	oxygen saturation in the blood ([2]; FIG. 14A)	number of p21 expressing cells in the lung tissue ([2]; both treatment regimens, IHC day 21 (FIG. 14B))	Hydroxyproline levels ([2]; left lung, day 21, therapeutic and preventative (FIG. 14E))	Ashcroft fibrosis score ([2]; lung sections day 21, compared to bleomycin treated group, p=0.0206 (FIG. 10B))	survival rate ([2]; over 21 days, both therapeutic and preventative regimens, vehicle group 75% (FIG. 10D)) [%]	expression levels of senescence related genes and SASP factors ([2]; post caval lobe, day 21 (FIG. 14C))	lung tissue density ([2]; therapeutic and preventive groups (FIG. 14F))	collagen levels (Masson's Trichrome) ([2]; therapeutic and preventive regimens (FIG. 14D))	Validated cleavage [3]	selectivity of killing, senescent versus growing IMR-90 cells [4]	elimination of senescent but not growing WI-38 cells [5]	elimination of senescent but not growing REC cells [6]
Dz_639: targets mouse p21; SEQ ID NO: 85: GGCCGAAGAggctagctacaacgaGGGGAAGAG; used in IPF model (GGCCGAAGAGGCTAGCTACAACGAGGGGAAGAG; chemistry not given here)	effective	significantly elevated	reduction	reduced	lower	100	significantly reduced	reduced	significantly reduced	–	–	–	–
DNAzyme 1114: SEQ ID NO: 40: AGGAGAACAggctagctacaacgaGGGAUGAGG (DNA AGGAGAACAGGCTAGCTACAACGAGGGAUGAGG; DNA, backbone, methylation of C and T or U not given here)	–	–	–	–	–	–	–	–	–	validated for mediating cleavage of p21 mRNA	maintained over a large range of concentrations	effectively eliminated	effectively eliminated
